Results reported in publication PMC3892053, “Pharmacokinetic/pharmacodynamic modeling for the determination of a cimicoxib dosing regimen in the dog” (BMC Veterinary Research, 2013).
Converted amounts (≈) assume the structure as drawn. Where two headings read alike, the source gives them in different places.

Assays:
[1] = Plasma pharmacokinetics after single oral administration in beagle dogs (Study 1); type: in vivo, dog; conditions: mean ± SD; for half-life: beagle, dog, plasma, po, 2 mg/kg, read-out: terminal half-life (converted)
Procedure: The study was conducted according to a classical 2×2 crossover design. Briefly, in period one, half of the dog (3 males and 3 females), received a single oral dose of cimicoxib (approximately 2 mg/kg, one 20 mg capsules – Vetoquinol Lure france) 26.5 h after the induction of kaolin inflammation on the left paw; the other half dogs received a placebo treatment at the same time. In period 2, treatments were crossed over for each dog and inflammation was induced on the right paw. A wash-out delay of at least 5 weeks was applied between the two periods. The treatment (cimicoxib or placebo) was blinded to the investigators.
Blood samples (5 mL, heparinized tubes) were obtained from the jugular vein by direct puncture just before inflammation to perform a biochemical checkup of the animals at the beginning of the experiment. Time 0 was defined as the time of treatment administration. Blood samples (5 mL, heparinized tubes) were collected at time 0 (just before cimicoxib or placebo administration) and then at times 30, 60, 90 min, and, 4, 6, 9, 15, 30 and 48 hours post-treatment. Tubes were centrifuged at 3000 G and plasma samples were stored at -20°C.
Plasma samples were analyzed by a High Performance Liquid Chromatography (HPLC) method using ultraviolet (UV) detection. Briefly, an internal standard (UR-8877) and cimicoxib (UR-8880) were extracted from plasma by a solid liquid (methanol) extraction process using HLB Oasis cartridges (Waters). The extraction yield was about 90%. The HPLC apparatus consists of a pump system equipped with an automatic injector and an UV detector (242 nm). […] The validated limit of quantification was 0.01 μg/mL.
Pharmacokinetic and PK/PD modeling were performed by least-squares regression analysis using WinNonlin Professional software (WinNonlin® software, version 4.0.1, Pharsight Corporation, Mountain View, Ca, USA). […] The number of exponential (2 or 3) terms needed to obtain the best fit for each data set was determined by the Akaike’s information criteria and by inspecting the plot of residuals. […]

[2] = test system: COX-2; design: method as in PMID 12877584; conditions: human whole blood assay, cited from earlier work
[3] = design: method as in Vetoquinol, unpublished results; conditions: non-linear disposition, ref Vetoquinol, unpublished results, cited from earlier work

Question: For `COc1ccc(-c2c(Cl)ncn2-c2ccc(S(N)(=O)=O)cc2)cc1F` [cimicoxib], which half-life ([1]; EM beagle dogs (n = 8)) is on record?
Answer: Its half-life is 4.6 ± 2.6 h.

Question: And the half-life ([1]; PM beagle dogs (n = 4))?
Answer: Its half-life is 8 ± 0.6 h.

Question: And the terminal half-life ([1]; oral 2 mg/kg, EM beagle dogs (n = 8))?
Answer: The terminal half-life was 2.9 ± 0.9 h.

Question: What about the “IC50 COX-2 inhibition” value [2] of the same compound?
Answer: The value was 0.025 µg/mL (≈ 0.0655 µM).

Question: What about the IC50 ([2]; read-out: IC50 COX-2 inhibition) of the same compound?
Answer: Its IC50 is 66 nM.

Question: And the “dose of the simulations to which observed plasma concentrations correspond” value ([3]; oral dose of 1 mg/kg)?
Answer: The value was 1.46 mg/kg.

Question: What about the “dose of the simulations to which observed plasma concentrations correspond” value ([3]; oral dose of 4 mg/kg) of the same compound?
Answer: The value was 3.18 mg/kg.
